Laboratory results: patent US20210198284A1, “GOLD COMPOSITIONS AND METHODS OF USE THEREOF” (THE UNIVERSITY OF MASSACHUSETTS, priority 2018, published 2021)

What was measured:
[1] = Log P determination (n-octanol/water, FAAS); conditions: n-octanol/water, gold by FAAS; for logP: Log P
Procedure: Log P Determination: Calibration curves. Milli-Q Water (150 mL) was added to n-octanol (150 mL), and the mixture was stirred for 3 days to allow both phases to reach saturation. The gold standard solution (1000 ppm Au in hydrochloric acid, Fisher Scientific) was diluted to 1, 2, 3, 4 and 5 ppm with n-octanol-saturated water, and the absorbance of the resulting solutions was measured by flame atomic absorption spectroscopy (FAAS, Agilent Technology 200 Series AA, equipped with a gold HC Lamp-Au coded). The absorbance data were plotted against Au concentration, and the resulting calibration curve was used for determining the concentration of the analogs in the aqueous phase.
To construct the standard calibration curve of the Au concentration in the n-octanol phase, compound 27 was used. The Au concentration in compound 27 was first calibrated against the aqueous gold standard. For this, 0.440 mg of compound 27 was weighed on a Sartorius MC5 microbalance, and then added to 22 mL of n-octanol-saturated water. […] For this, solutions of varying concentrations (0.99, 2.47, 4.94, 5.93, 9.88 ppm) of compound 27 in water-saturated n-octanol were prepared. The absorbance was measured by FAAS, and the data were plotted against the Au concentration to provide a second calibration curve, which was used for determining the Au concentration of the analogs in the n-octanol phase.
Determination of Au concentrations: Method 1. 0.5 to 1 mg of compound was weighed into a 2-mL Eppendorf tube containing 2 mL of n-octanol-saturated water. After shaking for about 4 h, the solution was centrifuged at 6000 rpm for 3 min. 1 mL of the supernatant was transferred to a new tube containing 1 mL of water-saturated n-octanol, and the mixture was shaken for 1 h. After centrifugation at 6000 rpm for 5 min, the two layers were collected and the gold concentration in each layer was determined by FAAS by comparing the absorbance to the first and second calibration curves.
Determination of Au concentrations: Method 2. […] For Method 2, 0.6 to 1 mg of compound was weighed into a 2-mL Eppendorf tube containing 1 mL of n-octanol-saturated water and 1 mL of water-saturated n-octanol. After shaking for 3-4 h, the mixture was centrifuged, and all liquid was transferred to a 15-mL tube. The liquid was then diluted with 2 mL of n-octanol-saturated saturated water and 2 mL of water-saturated n-octanol, and the mixture was shaken for another hour. After centrifugation at 6000 rpm for 5 min, the two layers were collected and the gold concentration in each layer was determined by FAAS by comparing the absorbance to the first and second calibration curves.
Log P was calculated as follows: log P=log[compound]oct/[compound]water

[2] = test system: S. aureus JE2 (USA300); experiment: Antibacterial assay, MIC/MBC by broth microdilution (CLSI); format: cell-based; conditions: for MIC values in words: S. aureus
Procedure: (§1) Antibacterial assay. The minimum inhibitory concentrations (MICs) and the minimum bactericidal concentrations (MBCs) were determined by the broth microdilution method as described in the CLSI (The Clinical & Laboratory Standards Institute) guidelines (Performance standards for antimicrobial susceptibility testing: Clinical and Laboratory Standards Institute (CLSI), Twenty-Fifth informational supplement. Document M100-S25: […]; Vol. 35). All bacterial strains were cultured in cation-adjusted Muller Hinton broth (CAMHB) up to log-phase and then diluted to give a concentration of 7.5×10^5 CFU/mL. The gold complexes were dissolved in DMSO or water as stock solutions, which were then serially diluted two-fold in a 96-well plate. Aliquots (100 μL) of the dilutions were mixed with equal volumes of the bacterium suspension in a 96 well plate (in triplicates). The plates were incubated at 37° C. for 18 h without shaking. Negative and positive controls were included in the same well plate with wells having the culture medium only and bacteria solution only, respectively. The sample concentration that gave inhibition values above 90% were determined as MICs as calculated from absorbance values at 600 nm (OD600) obtained using a Tecan SPARK IOM plate reader. To determine minimum bactericidal concentrations (MBCs), agar plates were treated with 5 μL sample solutions from each well, and then incubated at 37° C. for 18 h without shaking. The sample concentration that gave no colony formed on agar plates were determined as MBCs.
(§2) Selection of bacteria. The ESKAPE pathogens were chosen as they are responsible for the majority of nosocomial infections and also as they provide a good scope of strains including both Gram-negative and Gram-positive species. A. baumannii NCTC 13420 was originally identified in 24 hospitals in the UK during 2000-2003, which produced OXA-51-like β-lactamases, and was highly resistant to ampicillin, piperacillin, piperacillin/tazobactam, ceftazidime, cefotaxime, gentamicin and ciprofloxacin. P. aeruginosa NCTC13437 produces VIM-10 metallo-carbapenemase and VEB-1 (Vietnamese extended-spectrum beta-lactamase). Wild-type strain E. cloacae NCTC 13405 (originally named E. cloacae 684) was isolated from patients at the London Hospital during 1982-1983. This strain has inducible AmpC β-lactamase and is resistant to ampicillin/amoxicillin and cefoxitin. K. pneumoniae ATCC 700603 was isolated from the urine of a hospitalized patient in Richmond, Va. in 1994, and it produces SHV-18 extended spectrum beta-lactamase (ESBL). JE2 (USA300) is a methicillin-resistant S. aureus (MRSA) strain, also resistant to beta-lactams, ciprofloxacin, tetracycline, macrolides (erythromycin), lincosamides (clindamycin), streptogramin B, and mupirocin. E. faecium ATCC 700221, a positive fecal VRE (vancomycin-resistant enterococcus) isolate, is resistant to several antibiotics including vancomycin and teicoplanin. The quality control strain, Gram-negative E. coli ATCC 25922, was included in all assays and validated with ciprofloxacin and […].

[3] = test system: E. faecalis ATCC 700221; experiment: as above; format: cell-based; conditions: repeated twice, a/b = both values
Procedure: as §1, §2

[4] = test system: E. cloacae NCTC 13405; experiment: as above; format: cell-based; conditions: for activity in words: E. cloacae
Procedure: as §1, §2

[5] = test system: P. aeruginosa NCTC 13437; experiment: as above; format: cell-based; conditions: P. aeruginosa
Procedure: as §1, §2

[6] = test system: K. pneumoniae ATCC 700603; experiment: as above; format: cell-based; conditions: K. pneumoniae ATCC 700603; repeated twice, a/b = both values
Procedure: as §1, §2

[7] = test system: A. baumannii NCTC 13420; experiment: as above; format: cell-based; conditions: A. baumannii NCTC 13420; repeated twice, a/b = both values
Procedure: as §1, §2

[8] = test system: E. coli ATCC 25922; experiment: as above; format: cell-based; conditions: repeated twice, a/b = both values
Procedure: as §1, §2

In the case of `CC[P+](CC)(CC)[Au-][S]CC(F)(F)F` [Compound 26, (2,2,2-Trifluoroethanethiolato)(triethylphosphine) gold(I)], the logP [1] is reported as 2.08 and the “MIC values in words” value [2] is reported as “nanomolar range”.
With `CC(=O)OCC1O[C@@H]([S][Au-][P+](c2ccc(F)cc2)(c2ccc(F)cc2)c2ccc(F)cc2)C(OC(C)=O)[C@@H](OC(C)=O)[C@@H]1OC(C)=O` (stereo partly drawn) [Compound 39, (2,3,4,6-Tetra-O-acetyl-1-thio-β-D-glucopyranosato)(tris(4-fluorophenyl)phosphine)gold(I)] the logP [1] was over 3.04 and the MIC [3] was 2/5.
With `CC[P+](CC)(CC)[Au-][S]c1ccc([N+](=O)[O-])cc1` [Compound 22, (4-Nitrobenzenethiolato)(triethylphosphine) gold(I)] the logP [1] was over 3, the “Log P” value [1] was over 3.28 and the “MIC values in words” value [2] was “nanomolar range”. For the same molecule, the activity in words [4] was “completely diminished the activity”.
For `C[P+](C)(C)[Au-][Cl]` [Compound 28, (Trimethylphosphine) gold chloride], the logP [1] was 0.16, the activity in words [5] was “showed activity” and the MIC [6] was 7/13. The MIC [7] was 7/13.
For `CC(=O)OCC1O[C@@H]([S][Au-][P+](c2ccc(C(F)(F)F)cc2)(c2ccc(C(F)(F)F)cc2)c2ccc(C(F)(F)F)cc2)C(OC(C)=O)[C@@H](OC(C)=O)[C@@H]1OC(C)=O` (stereo partly drawn) [Compound 40, (2,3,4,6-Tetra-O-acetyl-1-thio-β-D-glucopyranosato)(tris(4-(trifluoromethyl)phenylphosphine)) gold(I)], the logP [1] was over 3.55.
With `CC[P+](CC)(CC)[Au-][S]CCO` [Compound 24, (2-Mercaptoethanolato)(triethylphosphine) gold(I)] the logP [1] was 1.19, the activity in words [5] was “showed activity” and the MIC ([4]; E. cloacae NCTC 13405, repeated twice, a/b = both values) was 5/10.
With `CC(=O)OCC1O[C@@H]([S][Au-][P+](c2ccccc2)(c2ccccc2)c2ccccc2)C(OC(C)=O)[C@@H](OC(C)=O)[C@@H]1OC(C)=O` (stereo partly drawn) [Compound 37, (2,3,4,6-Tetra-O-acetyl-1-thio-β-D-glucopyranosato)(triphenylphosphine) gold(I)] the logP [1] was over 3.87 and the MIC ([2]; S. aureus JE2 (USA300), repeated twice, a/b = both values) was 1/2.
In the case of `CC[P+](CC)(CC)[Au-][S]CC(=O)OC` [Compound 25, (Methyl mercaptoacetatato) (triethylphosphine) gold(I)], the logP [1] is reported as 1.75 and the “MIC values in words” value [2] is reported as “nanomolar range”.
In the case of `CC(=O)OCC1O[C@@H]([S][Au-][P+](C)(C)C)C(OC(C)=O)[C@@H](OC(C)=O)[C@@H]1OC(C)=O` (stereo partly drawn) [Compound 35, (2,3,4,6-Tetra-O-acetyl-1-thio-β-D-glucopyranosato)(trimethylphosphine) gold(I)], the logP [1] is reported as 0.35, the activity in words [5] is reported as “four-fold improvement in activity over 15” and the MIC [7] is reported as 6/13.
In the case of `Fc1ccc([P+]([Au-][Cl])(c2ccc(F)cc2)c2ccc(F)cc2)cc1` [Compound 33, (Tris(4-fluorphenyl)phosphine) gold chloride], the logP [1] is reported as over 4.04 and the MIC [3] is reported as 2/4.
For `CC[P+](CC)(CC)[Au-][S][C@@H]1OC(CO)[C@@H](O)[C@H](O)C1NC(C)=O` (stereo partly drawn) [Compound 12, (2-Acetamido-2-deoxy-1-thio-β-D-glucopyranosato)(triethylphosphine) gold(I)], the logP [1] was -0.89 and the MIC [8] was 7/4.
In the case of `CCCC[P+](CCCC)(CCCC)[Au-][S][C@@H]1OC(COC(C)=O)[C@@H](OC(C)=O)[C@H](OC(C)=O)C1OC(C)=O` (stereo partly drawn) [Compound 36, (2,3,4,6-Tetra-O-acetyl-1-thio-β-D-glucopyranosato)(tri-n-butylphosphine) gold(I)], the logP [1] is reported as over 4.32 and the MIC [3] is reported as 3/5.
For `COc1ccc([P+]([Au-][S][C@@H]2OC(COC(C)=O)[C@@H](OC(C)=O)[C@H](OC(C)=O)C2OC(C)=O)(c2ccc(OC)cc2)c2ccc(OC)cc2)cc1` (stereo partly drawn) [Compound 38, (2,3,4,6-Tetra-O-acetyl-1-thio-β-D-glucopyranosato)(tris(4-methoxyphenyl)phosphine) gold(I)], the logP [1] was over 3.03 and the MIC [3] was 2/4.
For `CC[P+](CC)(CC)[Au-][S]c1ccc(SCC(=O)NC2[C@H](OC(C)=O)OC(COC(C)=O)[C@@H](OC(C)=O)[C@@H]2OC(C)=O)cc1` (stereo partly shown) [Compound 8], the logP [1] was -0.36 and the MIC [7] was 76/19.
Work on `CC[PH](CC)(CC)[Au][S][C@@H]1OC(COC(C)=O)[C@@H](OC(C)=O)[C@H](OC(C)=O)C1NC(C)=O` (stereo partly drawn) [Compound 3, (3,4,6-Tri-O-acetyl-2-N-acetyl-1-thio-β-D-glucopyranosato) (triethylphosphine) gold (1)] yielded a logP [1] of 0.26.
For `CC[P+](CC)(CC)[Au-][S]c1ccc(C(F)(F)F)cc1` [Compound 23, (4-(Trifluromethyl)benzenethiolato)(triethylphosphine) gold(I)], the logP [1] was over 3, the “Log P” value [1] was over 3.18 and the activity in words [4] was “completely diminished the activity”.
